The IC50 is the point on the concentration scale where inhibition reaches its midpoint. Low readings indicate inhibition by little substance, high ones a need for much substance. As usually defined, the Dmax is the largest share of the target that was removed. Higher therefore signals a fuller loss of target.

In one assay the target is BCL6 (Homo sapiens (Human), UniProt P41182). Put plainly: Immunofluorescence high content imaging of BCL6 degradation in T47D cells. Format: cell-based.
Details: not given
The method, then: Immunofluorescence Protocol for High Cotent Imaging of BCL6
T47D cells were seeded in 100 μl volume of RPMI1640-10% FBS in a 96-well black/clear bottom plates for adherent lines (Corning #3904).
Day 1. T47D breast cancer epithelial cells were seeded at a density so that confluence is ˜70-90% at endpoint. Cells were seeded at 7K/0.1 ml/well the morning prior to the addition of exemplary bifunctional degradation compounds.
Day 2. Prepare an 11 point 3-fold serial dilution of exemplary bifunctional compound in DMSO and aliquot an appropriate volume to cell growth media to generate a 2× final concentration of exemplary bifunctional compound. Add an equal volume (0.1 ml) of 2× exemplary bifunctional compound/media mix to previously plated cells, for a final top concentration in aqueous cell growth media of 0.1 or 1 μM. Incubate for 3 days at 37° C., 5% CO2.
Day 5 Immunofluorescence. Discard cell media. Wash wells with 200 μl of room temperature phosphate-buffered saline (PBS). Prepared 4% paraformaldehyde (PFA) from 16% PFA (Electron Microscopy Sciences #15710) using 1×PBS. Fifty μl of 4% PF was added to each well and incubate for 15 minutes at room temperature to fix the cells. The PFA was aspirated and the cells washed twice with PBS (200 μl)).
Prepared 0.1% Triton X-100 in PBS using 10% triton X-100 stock. The cells were permeabilized by adding 100 ul of the 0.1% Triton X-100 in PBS to each well to permeabilize cells and incubating at room temperature for 15 minutes. Cells were washed twice with PBS.
Prepared 3% BSA/PBS (from Thermofisher #37515 Blocker BSA in TBS, 10%), and 100 ul was added to each well. The cells were incubated for at least 1 hour at room temperature.
Prepared 1% BSA/PBS using Blocker BSA/PBS, and the 3% BSA/PBS removed from the wells.
For no primary antibody controls, 50 μl 1% BSA/PBS was added.
Primary antibody (BCL6 Rb Ab, CST-14895, Cell Signaling) was diluted 1:300 in 1% BSA/PBS using Blocker BSA/PBS.
Fifty μl of primary antibody added to all remaining wells (i.e., all wells other than the primary antibody controls) and the cells were incubated overnight at 4° C. with slow orbital movement.
Day 6. Contents of the wells was removed and the cells washed four times with 200 ul PBS. 1% BSA/PBS was prepared using Blocker BSA in PBS.
Diluted secondary antibody goat anti-Rb IgG Alexa-488 1:1000, and cell mask-Alexa-647 1:3000 in 1% BSA/PBS in the same mix. Add 50 μl to each well and incubate at room temperature for 1 hour in the dark.
Cells were washed three times with 200 ul PBS, and then incubated for 10 minutes with 100 ul Hoechst dye at 1 μg/mL (20 mM stock) to stain cell nuclei. Wells were then washed with 200 μl PBS, and 100 ul of PBS was added to each well and the plate covered plate with a plastic opaque cover. Plates were stored at 4° C. and covered in aluminum foil until imaged.
Plates were equilibrated to room temperature prior to reading. The bottom of the plate was wiped with 70% isopropanol immediately prior to imaging.
10×, 4 fields/well, include Top hat smoothing in the analysis protocol.
For `CNC(=O)COc1cc2cc(Nc3nc(N4CCN(CC5(O)CCN(c6ccc7c(c6)C(=O)N(C6CCC(=O)NC6=O)C7=O)CC5)CC4)ncc3Cl)ccc2n(C)c1=O` (stereo not drawn) [compound 240, 2-((6-((5-chloro-2-(4-((1-(2-(2,6-dioxopiperidin-3-yl)-1,3-dioxoisoindolin-5-yl)-4-hydroxypiperidin-4-yl)methyl)piperazin-1-yl)pyrimidin-4-yl)amino)-1-methyl-2-oxo-1,2-dihydroquinolin-3-yl)oxy)-N-methylacetamide], the IC50 was in the range of 10 to 50 nM.

As for `CNC(=O)COc1cc2cc(Nc3nc(N4CCC(OC5CCN(c6cccc7c6C(=O)N(C6CCC(=O)NC6=O)C7=O)CC5)CC4)ncc3Cl)ccc2n(C(C)C)c1=O` (stereo not drawn) [compound 293, 2-{[6-({5-chloro-2-[4-({1-[2-(2,6-dioxopiperidin-3-yl)-1,3-dioxo-2,3-dihydro-1H-isoindol-4-yl]piperidin-4-yl}oxy)piperidin-1-yl]pyrimidin-4-yl}amino)-2-oxo-1-(propan-2-yl)-1,2-dihydroquinolin-3-yl]oxy}-N-methylacetamide], the IC50 was in the range of 10 to 50 nM.

Compound `CC(=O)COc1cc2cc(Nc3nc(N4CCC(OCCOC5CCN(c6ccc7c(c6)C(=O)N(C6CCC(=O)NC6=O)C7=O)CC5)C4)ncc3Cl)ccc2n(C)c1=O` (stereo not drawn) [compound 180, 5-(4-(2-((1-(5-chloro-4-((1-methyl-2-oxo-3-(2-oxopropoxy)-1,2-dihydroquinolin-6-yl)amino)pyrimidin-2-yl)pyrrolidin-3-yl)oxy)ethoxy)piperidin-1-yl)-2-(2,6-dioxopiperidin-3-yl)isoindoline-1,3-dione] gave an IC50 of at least 100 nM.

Staying with this assay, now noted: T47D.
Compound `CNC(=O)COc1cc2cc(Nc3nc(N4CCN(CC5(O)CCN(c6ccc7c(c6)C(=O)N(C6CCC(=O)NC6=O)C7=O)CC5)CC4)ncc3Cl)ccc2n(C)c1=O` (stereo not drawn) [compound 240, 2-((6-((5-chloro-2-(4-((1-(2-(2,6-dioxopiperidin-3-yl)-1,3-dioxoisoindolin-5-yl)-4-hydroxypiperidin-4-yl)methyl)piperazin-1-yl)pyrimidin-4-yl)amino)-1-methyl-2-oxo-1,2-dihydroquinolin-3-yl)oxy)-N-methylacetamide] showed a Dmax of 50 to 70%. On the same count and under the same terms, the figure for `CNC(=O)COc1cc2cc(Nc3nc(N4CCC(OC5CCN(c6cccc7c6C(=O)N(C6CCC(=O)NC6=O)C7=O)CC5)CC4)ncc3Cl)ccc2n(C(C)C)c1=O` (stereo not drawn) [compound 293, 2-{[6-({5-chloro-2-[4-({1-[2-(2,6-dioxopiperidin-3-yl)-1,3-dioxo-2,3-dihydro-1H-isoindol-4-yl]piperidin-4-yl}oxy)piperidin-1-yl]pyrimidin-4-yl}amino)-2-oxo-1-(propan-2-yl)-1,2-dihydroquinolin-3-yl]oxy}-N-methylacetamide] is 50 to 70%.

The same assay, now with this note: T47D cells.
For `CNC(=O)COc1cc2cc(Nc3nc(N4C[C@@H](C)N(CC5CCN(c6ccc(C(=O)NC7CCC(=O)NC7=O)c(OC)c6)CC5)[C@@H](C)C4)ncc3Cl)ccc2n(C)c1=O` (stereo partly drawn) [compound 346, 4-(4-{[(2R,6S)-4-[5-chloro-4-({1-methyl-3-[(methylcarbamoyl)methoxy]-2-oxo-1,2-dihydroquinolin-6-yl}amino)pyrimidin-2-yl]-2,6-dimethylpiperazin-1-yl]methyl}piperidin-1-yl)-N-(2,6-dioxopiperidin-3-yl)-2-methoxybenzamide], the Dmax was in the range of 50 to 70% and the IC50 was below 10 nM. For `CNC(=O)COc1cc2cc(Nc3nc(N4CCC(CN5CCC6(CC5)CN(c5cccc(C(=O)NC7CCC(=O)NC7=O)c5OC)C6)CC4)ncc3Cl)ccc2n(C(C)C)c1=O` (stereo not drawn) [compound 420, 3-[7-({1-[5-chloro-4-({3-[(methylcarbamoyl)methoxy]-2-oxo-1-(propan-2-yl)-1,2-dihydroquinolin-6-yl}amino)pyrimidin-2-yl]piperidin-4-yl}methyl)-2,7-diazaspiro[3.5]nonan-2-yl]-N-(2,6-dioxopiperidin-3-yl)-2-methoxybenzamide] the same measures were below 50% and 50 to 100 nM. `CC[C@@H]1CN(c2ncc(Cl)c(Nc3ccc4c(c3)cc(OCC(=O)NC)c(=O)n4C(C)C)n2)C[C@@H](COc2ccc3c(c2)C(=O)N(C2CCC(=O)NC2=O)C3=O)O1` (stereo partly drawn) [compound 389, 2-{[6-({5-chloro-2-[(2S,6R)-2-({[2-(2,6-dioxopiperidin-3-yl)-1,3-dioxo-2,3-dihydro-1H-isoindol-5-yl]oxy}methyl)-6-ethylmorpholin-4-yl]pyrimidin-4-yl}amino)-2-oxo-1-(propan-2-yl)-1,2-dihydroquinolin-3-yl]oxy}-N-methylacetamide] came in with a Dmax below 50% and an IC50 of 10 to 50 nM.

Compound `CNC(=O)COc1cc2cc(Nc3nc(N4CCN(CC5CCN(c6cc(OC)cc7c6C(=O)N(C6CCC(=O)NC6=O)C7=O)CC5)CC4)ncc3Cl)ccc2n(C(C)C)c1=O` (stereo not drawn) [compound 414, 2-{[6-({5-chloro-2-[4-({1-[2-(2,6-dioxopiperidin-3-yl)-6-methoxy-1,3-dioxo-2,3-dihydro-1H-isoindol-4-yl]piperidin-4-yl}methyl)piperazin-1-yl]pyrimidin-4-yl}amino)-2-oxo-1-(propan-2-yl)-1,2-dihydroquinolin-3-yl]oxy}-N-methylacetamide] returned a Dmax of at least 70%.

The assay is the same for the next values; noted with them: class symbols A-D, read-out: EC50 (nM)*.
On to `CNC(=O)COc1cc2cc(Nc3nc(N4CCC(OCCOCCCOCCCOc5ccc6c(c5)CN(C5CCC(=O)NC5=O)C6=O)CC4)ncc3Cl)ccc2n(C)c1=O` (stereo not drawn) [compound 147, 2-((6-((5-chloro-2-(4-(2-(3-(3-((2-(2,6-dioxopiperidin-3-yl)-1-oxoisoindolin-5-yl)oxy)propoxy)propoxy)ethoxy)piperidin-1-yl)pyrimidin-4-yl)amino)-1-methyl-2-oxo-1,2-dihydroquinolin-3-yl)oxy)-N-methylacetamide], for which the DC50 was above 100 nM. `CNC(=O)COc1cc2cc(Nc3nc(N4CCC(Cc5cn(CCOCCOCCOCCOc6ccc7c(c6)C(=O)N(C6CCC(=O)NC6=O)C7=O)nn5)CC4)ncc3Cl)ccc2n(C)c1=O` (stereo not drawn) [compound 131, 2-((6-((5-chloro-2-(4-((1-(2-(2-(2-(2-((2-(2,6-dioxopiperidin-3-yl)-1,3-dioxoisoindolin-5-yl)oxy)ethoxy)ethoxy)ethoxy)ethyl)-1H-1,2,3-triazol-4-yl)methyl)piperidin-1-yl)pyrimidin-4-yl)amino)-1-methyl-2-oxo-1,2-dihydroquinolin-3-yl)oxy)-N-methylacetamide]: the DC50 is above 100 nM. Still for that read-out and setting: in the case of `CNC(=O)COc1cc2cc(Nc3nc(N4CCC(OCCOCCOCC(=O)N[C@H](C(=O)N5C[C@H](O)C[C@H]5C(=O)NCc5ccc(-c6scnc6C)cc5)C(C)(C)C)CC4)ncc3Cl)ccc2n(C)c1=O` [compound 70, (2S,4R)-1-((S)-2-(2-(2-(2-((1-(5-chloro-4-((1-methyl-3-(2-(methylamino)-2-oxoethoxy)-2-oxo-1,2-dihydroquinolin-6-yl)amino)pyrimidin-2-yl)piperidin-4-yl)oxy)ethoxy)ethoxy)acetamido)-3,3-dimethylbutanoyl)-4-hydroxy-N-(4-(4-methylthiazol-5-yl)benzyl)pyrrolidine-2-carboxamide] it was above 100 nM. The same measure, in the same setting: the figure for `CNC(=O)COc1cc2cc(Nc3nc(N4CCC(Cc5cn(CCOCCOc6ccc7c(c6)C(=O)N(C6CCC(=O)NC6=O)C7=O)nn5)CC4)ncc3Cl)ccc2n(C)c1=O` (stereo not drawn) [compound 113, 2-((6-((5-chloro-2-(4-((1-(2-(2-((2-(2,6-dioxopiperidin-3-yl)-1,3-dioxoisoindolin-5-yl)oxy)ethoxy)ethyl)-1H-1,2,3-triazol-4-yl)methyl)piperidin-1-yl)pyrimidin-4-yl)amino)-1-methyl-2-oxo-1,2-dihydroquinolin-3-yl)oxy)-N-methylacetamide] is 50 to 100 nM; for `CNC(=O)COc1cc2cc(Nc3nc(N4CCC(OCCCOCCCOc5ccc6c(c5)CN(C5CCC(=O)NC5=O)C6=O)CC4)ncc3Cl)ccc2n(C)c1=O` (stereo not drawn) [compound 140, 2-((6-((5-chloro-2-(4-(3-(3-((2-(2,6-dioxopiperidin-3-yl)-1-oxoisoindolin-5-yl)oxy)propoxy)propoxy)piperidin-1-yl)pyrimidin-4-yl)amino)-1-methyl-2-oxo-1,2-dihydroquinolin-3-yl)oxy)-N-methylacetamide] it is above 100 nM. Regarding `CNC(=O)COc1cc2cc(Nc3nc(N4CCC(c5cn(CCOCCOCCOCCOCCOCC(=O)N[C@H](C(=O)N6C[C@H](O)C[C@H]6C(=O)N[C@@H](C)c6ccc(-c7scnc7C)cc6)C(C)(C)C)nn5)CC4)ncc3Cl)ccc2n(C)c1=O` [compound 117, (2S,4R)-1-((S)-2-(tert-butyl)-20-(4-(1-(5-chloro-4-((1-methyl-3-(2-(methylamino)-2-oxoethoxy)-2-oxo-1,2-dihydroquinolin-6-yl)amino)pyrimidin-2-yl)piperidin-4-yl)-1H-1,2,3-triazol-1-yl)-4-oxo-6,9,12,15,18-pentaoxa-3-azaicosanoyl)-4-hydroxy-N-((S)-1-(4-(4-methylthiazol-5-yl)phenyl)ethyl)pyrrolidine-2-carboxamide], the DC50 lay in the range of 10 to 50 nM.

For the origin of these results see patent publication US12310975B2, “Modulators of BCL6 proteolysis and associated methods of use” (Arvinas Operations, Inc., priority 2019, dated 2025).
